Legend:
PC-12 cells = assay: Cell death (apoptosis) of PC-12 cells in culture broth without blood serum, trypan blue staining; type: cell-based; details: 100 ng/mL, no blood serum, 24 hours
Experimental: Therefore, each of ΔHA2, HA4, ΔHA4, HA6, ΔHA6, HA8, HA10, HA12, HA84, L4 and L4L4 was added to a culture broth containing PC-12 cells at a concentration of 100 ng/mL (containing no blood serum), 24 hours after, the cells were stained with trypan blue, and a ratio of the number of viable cells (cells not stained with trypan blue) to the total cell number was calculated.

SD male rats = assay: Gastric ulcer caused by arrest by water immersion in rats; type: in vivo, rat
Experimental: A test substance was dissolved in carboxymethylcellulose (CMC) to obtain a test solution for administration. The concentration was determined depending on the dose mentioned below so that the volume of the solution to be administered should become 10 mL/kg.
Moreover, as a positive control solution, a conventional agent for treating gastritis and gastric ulcer (teprenone, geranylgeranylacetone, trade name: Selbex, Eisai) dissolved in CMC was used. The concentration was determined so that the dose and the volume of the solution to be administered should become 1 mg/kg (clinical dose) and 10 mL/kg, respectively. As a negative control solution, 0.5% CMC was used.
SD male rats of 5-week old were divided into a “negative control solution” administered group (n=8), “HA4 4 mg/kg” administered group (n=8), “HA4 20 mg/kg” administered group (n=8), “HA4 100 mg/kg” administered group (n=8) and “positive control solution” administered group (n=8).
The rats of the groups were starved from 16:00 of the day before the first administration day, orally administered with each of the aforementioned solutions at 8:00 of the next day and arrested by water immersion. The arrest by water immersion was continued until 8:00 of the next day (24 hours). In the course of the arrest, each solution was administered in the same manner as the first administration at 16:00 and 24:00.
Then, the rats were dissected, and the stomachs were extracted. The extracted stomachs were expanded by injection of 10% buffered formalin to smoothen the holds and fixed. Then, the blood adhering to walls of stomachs was removed by washing with water.
The area ratio of ulcerous portion degenerated in a dark brown color (ulcer area/glandular stomach area) was measured by using an image analysis apparatus (Image-Pro PLUS™ Version 3.0.1, produced by Media Cybernetics). The symbols * and ** in FIG. 48 indicate significant differences with p<0.05 and p<0.01, respectively (Williams multiple range test).

SMILES: CC(=O)N[C@H]1[C@H](O[C@H]2[C@H](O)[C@@H](O)[C@H](O[C@H]3[C@H](O)[C@@H](CO)OC(O)[C@@H]3NC(C)=O)O[C@@H]2C(=O)O)O[C@H](CO)[C@@H](O)[C@@H]1O[C@@H]1O[C@H](C(=O)O)[C@@H](O)[C@H](O)[C@H]1O.[Na].[Na] (stereo partly drawn) [HA4, sodium β-D-glucopyranosyluronate-(1→3)-2-acetamido-2-deoxy-β-D-glucopyranosyl-(1→4)-(sodium β-D-glucopyranosyluronate)-(1→3)-2-acetamido-2-deoxy-D-glucopyranose]
- suppression of cell death (ratio of the number of viable cells to the total cell number) (PC-12 cells): more notably suppressed the cell death
- area ratio of ulcerous portion (ulcer area/glandular stomach area) (SD male rats; 20 mg/kg oral, compared with positive control solution (teprenone 1 mg/kg)): lower than that observed for the positive control solution group
- area ratio of ulcerous portion (ulcer area/glandular stomach area) (SD male rats; 100 mg/kg oral, compared with positive control solution (teprenone 1 mg/kg)): lower than that observed for the positive control solution group
- area ratio of ulcerous portion (ulcer area/glandular stomach area) (SD male rats; all HA4 groups (4, 20, 100 mg/kg, oral, three administrations), compared with negative control solution group): significantly reduced
